Assay results reported in patent publication US20240216272A1, “PHARMACEUTICAL PREPARATION” (KOWA COMPANY, LTD., priority 2014, published 2024).

Test: Test Example 5: photostability in plastic container containing an ultraviolet absorber
Format: physicochemical
Conditions: for Analogs (%): aqueous composition 0.4 g/100 mL as free form, pH 6.0, polypropylene container containing ultraviolet absorber (transmittance 300 to 335 nm: 7.2%)
Experimental: Based on the results obtained in Test Examples 3 and 4, stabilization of an aqueous composition containing ripasudil was attempted by storing the aqueous composition in a container containing an ultraviolet absorber.
Specifically, an aqueous composition containing, per 100 mL, 0.4896 g of ripasudil monohydrochloride dihydrate (0.4 g, as the free form of ripasudil), 0.4 g of anhydrous sodium dihydrogen phosphate, 2.136 g of glycerin, 0.002 g of benzalkonium chloride, an appropriate amount of sodium hydroxide (pH 6.0), and sterile purified water (balance) was prepared. This aqueous composition was then stored in the below-described container for eye drops made of polypropylene, which contained an ultraviolet absorber. The aqueous composition was then irradiated with 4000 lux of light to give a cumulative radiation dose of 1,200,000 lux.hr, at 25° C., with a D65 fluorescent lamp as the light source, using a photostability tester (LT-120A: Nagano Science Corporation).
The amount of ripasudil analogs was evaluated for the sample before and after exposure to light, as in Test Example 1.
A container for eye drops made of polypropylene into which a benzotriazole-based ultraviolet absorber was mixed was used.

C[C@H]1CNCCCN1S(=O)(=O)c1cccc2cncc(F)c12 [ripasudil, 4-fluoro-5-[[(2S)-2-methyl-1,4-diazepan-1-yl]sulfonyl]isoquinoline]
Analogs (%) (D65 lamp, 25° C., 1,200,000 lux·hr): 0.55%
Analogs (%) (before exposure to light): 0.11%
photostability of ripasudil in the aqueous composition (container with average transmittance at 300 to 335 nm of 7.2%, in words): improved
